In the assay the target is 5-hydroxytryptamine receptor 5B (Mus musculus, UniProt P31387).

Here are results for 13 compounds from BindingDB's records for PubMed 8450829 (Cnrs, 1993).

By Ki is commonly meant the equilibrium dissociation constant of an inhibitor or competing ligand from its target.

Sequence of 5-hydroxytryptamine receptor 5B (P31387 whole entry): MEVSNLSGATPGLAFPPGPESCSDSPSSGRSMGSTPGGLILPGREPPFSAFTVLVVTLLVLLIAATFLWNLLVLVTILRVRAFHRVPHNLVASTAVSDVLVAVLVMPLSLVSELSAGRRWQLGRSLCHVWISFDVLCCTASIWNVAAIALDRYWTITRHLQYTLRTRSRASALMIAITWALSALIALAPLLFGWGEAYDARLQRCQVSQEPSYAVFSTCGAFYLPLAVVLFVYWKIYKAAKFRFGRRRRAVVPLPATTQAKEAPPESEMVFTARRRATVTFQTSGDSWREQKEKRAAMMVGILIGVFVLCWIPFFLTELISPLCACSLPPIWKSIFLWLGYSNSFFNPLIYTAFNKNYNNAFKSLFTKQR

As to `CN1C[C@H](C(=O)N[C@]2(C)O[C@@]3(O)[C@@H]4CCCN4C(=O)[C@H](Cc4ccccc4)N3C2=O)C=C2c3cccc4[nH]cc(c34)C[C@H]21` [12'-hydroxy-2'-methyl-5'alpha-(phenylmethyl)ergotaman-3',6',18-trione], the inhibitory constant (Ki) came to 3.16 nM.
The figure for `CN(C)CCc1c[nH]c2ccc(O)cc12` [3-[2-(dimethylamino)ethyl]indol-5-ol] is 1580 nM.
Take `COc1ccc2[nH]cc(C3=CCNCC3)c2c1` [5-Methoxy-3-(1,2,3,6-tetrahydro-pyridin-4-yl)-1H-indole(RU-24969)]: the inhibition constant (Ki) is 398 nM.
With `NCCc1c[nH]c2ccc(C(N)=O)cc12` [[3H]-5-carboxamidotryptamine] the figure was 39.8 nM; with `FC(F)(F)c1cccc(N2CCNCC2)c1` [TFMPP], 3980 nM.
In the case of `CC[C@@H](CO)NC(=O)[C@@H]1C=C2c3cccc4c3c(cn4C)C[C@H]2N(C)C1`, the affinity, expressed as Ki, was 126 nM. Compared with the last compound, the Ki is about 32-fold lower.
With `NCCc1ccc(O)c(O)c1` the figure was greater than 10000 nM; with `NCC(O)c1ccc(O)c(O)c1` (stereo not drawn) [Noradrenaline,(+)], greater than 10000 nM; with `NCCc1c[nH]c2ccc(O)cc12` [[3H]-5-HT], 251 nM.
As for `CCCN(CCC)C1CCc2cccc(O)c2C1` (stereo not drawn), the affinity, expressed as Ki, was 398 nM.
With `CSc1ccc2c(c1)C(N1CCN(C)CC1)Cc1ccccc1S2` (stereo not drawn) [methanesulfonic acid;1-methyl-4-(3-methylsulfanyl-5,6-dihydrobenzo[b][1]benzothiepin-5-yl)piperazine] the figure was 15.8 nM; with `O=C(c1ccc(F)cc1)C1CCN(CCn2c(=O)[nH]c3ccccc3c2=O)CC1` [3-(2-{4-[(4-fluorophenyl)carbonyl]piperidin-1-yl}ethyl)-1,2,3,4-tetrahydroquinazoline-2,4-dione], 1580 nM.
With `CNS(=O)(=O)Cc1ccc2[nH]cc(CCN(C)C)c2c1` [Sumax] the figure was 7940 nM.
